The values that follow are results of earlier work, collected in patent US20120277693A1, “METHOD AND APPARATUS FOR IMPROVING THE APPEARANCE OF NAILS AFFECTED BY ONYCHOMYCOSIS THROUGH THE TOPICAL APPLICATION OF AN AQUEOUS SOLUTION CONTAINING BORIC ACID AND CAMPHOR OR OTHER TERPENES” (priority 2009, published 2012).

The conditions of data set [1]: in boiling water; believed to be approximately; also printed as 280 g/L or 4.53 mole/L.
Data set [2] concerns fungal nail infection. The following applies: topical lacquer painted daily on infected nails.

As for `OB(O)O` [boric acid], the “boric acid concentration, supersaturated” value in data set [1] was “approximately 28%”. For `Cc1cc(C2CCCCC2)n(O)c(=O)c1` [ciclopirox], the “patients in whom the treatment is effective” value in data set [2] is “less than 10%”.
